The results in this text go back to US12312319B2, “Isoxazoline compounds, their preparation methods and use” (METISA BIOTECHNOLOGY CO., LTD, priority 2019, dated 2025).

Each structure is given as a SMILES string.

Assay type in all cases: in vivo
One assay concerns Chilo suppressalis. The assay is described as follows: Insecticidal activity against Chilo suppressalis, spraying of rice seedlings. To be noted: 72 h, 3rd instar larvae, 3 days after administration; for mortality at 0.625 µg/mL: 0.625 mg/L; for mortality at 2.5 µg/mL: 2.5 mg/L; for mortality at 10 µg/mL: 10 mg/L. The procedure: (§1) The compound to be determined was dissolved in a mixed solvent of acetone/methanol (1:1), followed by dilution with water containing 0.1% (wt) Tween 80 to a desired concentration.
(§2) The activities of the respective compounds against Leucania separata, Plutella xylostella, and Chilo suppressalis were determined by Airbrush spraying method.
The determination method was as follows: 1) Preparation of rice seedlings: rice plants were cultivated in a plastic cup with a diameter of 4.5 cm and a height of 4 cm in a thermostatic chamber (temperature 26-28° C., relative humidity 60-80%, illumination 16 hL: 8 hD), and when the rice plants were developed to have 4-5 leaves, strong seedlings with identical growth vigour were selected for chemical treatment, and each treatment was replicated 3 times. 2) Preparation of insects to be tested: Chilo suppressalis, 3rd instar larvae, continuous lab rearing. 3) Inoculation of insects by spraying rice plant stems: The whole rice seedlings were sprayed evenly by using the spraying method, with 15 mL of the compound solution for each treatment. Firstly, the blank control was treated, and then the above procedure was replicated according to the order of test concentration from low to high. After rice seedlings were spray-treated, they were placed in the shade to dry, and the stems about 5 cm from the stem bases were cut off to feed the insects to be tested. Glass culture dishes with a diameter of 90 mm were prepared; each dish was padded with a filter paper at the bottom and added with water to keep moisture; about 5 rice stems were put into each dish and inoculated with 10 larvae, and each culture dish was then sealed with a non-woven and cultured in a thermostatic chamber. The number of residual live insects was examined 3 days after administration.

For the next assay, the system named is Plutella xylostella. Kind of assay: Insecticidal activity against Plutella xylostella, Airbrush spraying of cabbage leaf discs. To be noted: foliar, 72 h, 3rd instar larvae, 3 days after administration; for mortality at 5 µg/mL: 5 mg/L; for mortality at 10 µg/mL: 10 mg/L; for mortality at 2.5 µg/mL: 2.5 mg/L. The procedure:
as §1, §2
(§3) The determination method was as follows: Cabbage leaves were made into leaf discs with a diameter of 2 cm by using a hole puncher; the pressure of Airbrush spraying was 10 psi (about 0.7 kg/cm^2); both sides of each leaf disc were sprayed with 0.5 mL of the compound solution to be tested. After drying in the shade, ten 3rd instar larvae were inoculated for each treatment, and each treatment was replicated 3 times. After treatment, they were cultured in an observation room at a temperature of 25° C. and a relative humidity of 60-70%, and the number of surviving insects was examined and the mortality was calculated three days after administration.

Another assay concerns Leucania separata. The assay is described as follows: Insecticidal activity against Leucania separata, Airbrush spraying of corn leaf segments. To be noted: Mythimna separata, foliar, 72 h, 3rd instar larvae, 3 days after administration; for mortality at 1.25 µg/mL: 1.25 mg/L; for mortality at 2.5 µg/mL: 2.5 mg/L; for mortality at 5 µg/mL: 5 mg/L; for mortality at 10 µg/mL: 10 mg/L. The procedure: as §1, §2
as §3, with “Corn” for “Cabbage”, “cut” for “made”, “into” for “into leaf discs with a diameter of”, “long segments;” for “by using a hole puncher;”, “segment” for “disc”

The subject of the next assay is Tetranychus cinnabarinus. Kind of assay: Acaricidal activity against Tetranychus cinnabarinus in greenhouse, bean seedling spraying. As to conditions: adult mites, 3 days (72 hours) after treatment; for mortality at 0.625 µg/mL: 0.625 mg/L; for mortality at 1.25 µg/mL: 1.25 mg/L; for mortality at 2.5 µg/mL: 2.5 mg/L; for mortality at 5 µg/mL: 5 mg/L. The procedure:
The compounds of the invention were determined for the acaricidal activity in greenhouse. The determination method was as follows:
A bean seedling with two true leaves was taken for inoculating 30-40 adult mites of Tetranychus cinnabarinus. After examining the cardinal number, the whole seedling was treated by spraying with a hand-held sprayer, each treatment being replicated 3 times, and then placed in a standard observation room. The number of surviving mites was examined after 72 hours, and the mortality was calculated.

For `CCN1OC[C@@H](N(C(C)=O)C(=O)c2ccc(C3=NOC(c4cc(Cl)cc(Cl)c4)(C(F)(F)F)C3)cc2C)C1=O` (mixture of isomers) [Compound 109], in the assay with Chilo suppressalis, the mortality at 0.625 µg/mL was found to be 80%, the mortality at 2.5 µg/mL stood at 100% and the mortality at 10 µg/mL is 100%. Moreover, in the assay on Plutella xylostella, the mortality at 5 µg/mL was 70% and the mortality at 10 µg/mL is 100%. In the assay on Leucania separata, this compound came in with a mortality at 1.25 µg/mL of 26.7%, a mortality at 2.5 µg/mL of 63.3%, a mortality at 5 µg/mL of 83.3% and a mortality at 10 µg/mL of 100%. In the assay on Tetranychus cinnabarinus, this compound returned a mortality at 0.625 µg/mL of 16.7%, a mortality at 1.25 µg/mL of 70%, a mortality at 2.5 µg/mL of 100% and a mortality at 5 µg/mL of 100%.
In the assay on Chilo suppressalis, `CCN1OC[C@@H](N(C(=O)c2ccc(C3=NOC(c4cc(Cl)cc(Cl)c4)(C(F)(F)F)C3)cc2C)C(=O)C2CC2)C1=O` (mixture of isomers) [Compound 112] returned a mortality at 0.625 µg/mL of 96.7%, a mortality at 2.5 µg/mL of 100% and a mortality at 10 µg/mL of 100%. In the assay with Plutella xylostella, the mortality at 5 µg/mL is 70% and the mortality at 10 µg/mL is 100%. Also, in the assay on Leucania separata, the mortality at 1.25 µg/mL came to 80%, the mortality at 2.5 µg/mL was found to be 96.7%, the mortality at 5 µg/mL was found to be 100% and the mortality at 10 µg/mL is 100%. In the assay on Tetranychus cinnabarinus, this compound registered a mortality at 0.625 µg/mL of 96.7%, a mortality at 1.25 µg/mL of 100%, a mortality at 2.5 µg/mL of 100% and a mortality at 5 µg/mL of 100%.
In the assay on Chilo suppressalis, `CCN1OC[C@@H](N(C(=O)COC)C(=O)c2ccc(C3=NOC(c4cc(Cl)cc(Cl)c4)(C(F)(F)F)C3)cc2C)C1=O` (mixture of isomers) [Compound 113] registered a mortality at 0.625 µg/mL of 86.7%, a mortality at 2.5 µg/mL of 100% and a mortality at 10 µg/mL of 100%. In the assay on Plutella xylostella, this compound gave a mortality at 2.5 µg/mL of 66.7%, a mortality at 5 µg/mL of 90% and a mortality at 10 µg/mL of 100%. In the assay with Leucania separata, this compound gave a mortality at 1.25 µg/mL of 100%, a mortality at 2.5 µg/mL of 100%, a mortality at 5 µg/mL of 100% and a mortality at 10 µg/mL of 100%. Besides, in the assay with Tetranychus cinnabarinus, the mortality at 0.625 µg/mL was 100%, the mortality at 1.25 µg/mL was found to be 100%, the mortality at 2.5 µg/mL is 100% and the mortality at 5 µg/mL is 100%.
In the case of `CCOCC(=O)N(C(=O)c1ccc(C2=NOC(c3cc(Cl)cc(Cl)c3)(C(F)(F)F)C2)cc1C)[C@@H]1CON(CC)C1=O` (mixture of isomers) [Compound 114], in the assay with Chilo suppressalis, the mortality at 0.625 µg/mL came to 83.3%, the mortality at 2.5 µg/mL worked out at 100% and the mortality at 10 µg/mL was found to be 100%. Further, in the assay with Plutella xylostella, the mortality at 2.5 µg/mL came out at 60%, the mortality at 5 µg/mL worked out at 86.7% and the mortality at 10 µg/mL amounted to 100%. In the assay with Leucania separata, the mortality at 1.25 µg/mL amounted to 100%, the mortality at 2.5 µg/mL was 100%, the mortality at 5 µg/mL turned out to be 100% and the mortality at 10 µg/mL was determined as 100%. In the assay with Tetranychus cinnabarinus, this compound yielded a mortality at 0.625 µg/mL of 100%, a mortality at 1.25 µg/mL of 100%, a mortality at 2.5 µg/mL of 100% and a mortality at 5 µg/mL of 100%.
In the assay with Chilo suppressalis, `CCN1OC[C@@H](N(C(=O)c2ccc(C3=NOC(c4cc(Cl)c(F)c(Cl)c4)(C(F)(F)F)C3)cc2C)C(=O)C2CC2)C1=O` (mixture of isomers) [Compound 120] showed a mortality at 0.625 µg/mL of 96.7%, a mortality at 2.5 µg/mL of 100% and a mortality at 10 µg/mL of 100%. In addition, in the assay with Plutella xylostella, the mortality at 2.5 µg/mL turned out to be 83.3%, the mortality at 5 µg/mL was found to be 100% and the mortality at 10 µg/mL amounted to 100%. In the assay with Leucania separata, this compound displayed a mortality at 1.25 µg/mL of 100%, a mortality at 2.5 µg/mL of 100%, a mortality at 5 µg/mL of 100% and a mortality at 10 µg/mL of 100%. Also, in the assay with Tetranychus cinnabarinus, the mortality at 0.625 µg/mL worked out at 100%, the mortality at 1.25 µg/mL turned out to be 100%, the mortality at 2.5 µg/mL stood at 100% and the mortality at 5 µg/mL is 100%.
In the assay with Chilo suppressalis, `CCN1OC[C@@H](N(C(=O)COC)C(=O)c2ccc(C3=NOC(c4cc(Cl)c(F)c(Cl)c4)(C(F)(F)F)C3)cc2C)C1=O` (mixture of isomers) [Compound 121] gave a mortality at 0.625 µg/mL of 90%, a mortality at 2.5 µg/mL of 100% and a mortality at 10 µg/mL of 100%. In the assay on Plutella xylostella, this compound showed a mortality at 2.5 µg/mL of 86.7%, a mortality at 5 µg/mL of 100% and a mortality at 10 µg/mL of 100%. Also, in the assay on Leucania separata, the mortality at 1.25 µg/mL turned out to be 100%, the mortality at 2.5 µg/mL turned out to be 100%, the mortality at 5 µg/mL is 100% and the mortality at 10 µg/mL is 100%. In addition, in the assay with Tetranychus cinnabarinus, the mortality at 0.625 µg/mL came to 100%, the mortality at 1.25 µg/mL worked out at 100%, the mortality at 2.5 µg/mL turned out to be 100% and the mortality at 5 µg/mL worked out at 100%.
Turning to `CCOCC(=O)N(C(=O)c1ccc(C2=NOC(c3cc(Cl)c(F)c(Cl)c3)(C(F)(F)F)C2)cc1C)[C@@H]1CON(CC)C1=O` (mixture of isomers) [Compound 122], in the assay with Chilo suppressalis, the mortality at 0.625 µg/mL stood at 93.3%, the mortality at 2.5 µg/mL worked out at 100% and the mortality at 10 µg/mL was 100%. Further, in the assay with Plutella xylostella, the mortality at 2.5 µg/mL amounted to 70%, the mortality at 5 µg/mL worked out at 100% and the mortality at 10 µg/mL was 100%. In the assay on Leucania separata, the mortality at 1.25 µg/mL was determined as 100%, the mortality at 2.5 µg/mL is 100%, the mortality at 5 µg/mL is 100% and the mortality at 10 µg/mL was 100%. For the same compound, in the assay with Tetranychus cinnabarinus, the mortality at 0.625 µg/mL is 100%, the mortality at 1.25 µg/mL came to 100%, the mortality at 2.5 µg/mL turned out to be 100% and the mortality at 5 µg/mL came out at 100%.
For `CCN1OC[C@@H](N(C(=O)OC)C(=O)c2ccc(C3=NOC(c4cc(Cl)cc(Cl)c4)(C(F)(F)F)C3)cc2C)C1=O` (stereo partly shown) [Comparative compound, reference compound], in the assay with Chilo suppressalis, the mortality at 0.625 µg/mL was determined as 0%, the mortality at 2.5 µg/mL is 0% and the mortality at 10 µg/mL turned out to be 16.7%. In the assay with Plutella xylostella, this compound showed a mortality at 2.5 µg/mL of 0%, a mortality at 5 µg/mL of 30% and a mortality at 10 µg/mL of 76.7%. For the same compound, in the assay with Leucania separata, the mortality at 1.25 µg/mL came out at 0%, the mortality at 2.5 µg/mL is 0%, the mortality at 5 µg/mL is 13.3% and the mortality at 10 µg/mL stood at 73.3%. In the assay with Tetranychus cinnabarinus, this compound showed a mortality at 1.25 µg/mL of 20%, a mortality at 2.5 µg/mL of 73.3% and a mortality at 5 µg/mL of 100%.
